The target in this assay is EGFR kinase (Homo sapiens (Human), UniProt P00533). The experiment in a line: EGFR kinase activity, luminescent ATP/ADP detection assay. The format is biochemical. Conditions: purified EGFR kinase, 10 min incubation, luminescence ADP detection. The procedure: Example RR: EGFR as a Drug Target Assay Conditions
The IC50s of the compounds on EGFR activity were determined using the Luminescent ATP/ADP detection assay system. Briefly, the assay method measures ADP formed from EGFR kinase activity using luminescence derived from ATP-Luciferase detection system. Purified EGFR kinase was incubated with different concentrations of test compound in the kinase reaction buffer for 10 min. The reaction was stopped by depleting the unused ATP in the kinase reaction buffer using the depletion buffer for 40 min. The levels of ADP generated during the kinase reaction was detected by measuring the luminescence using the Luciferase system.

Bounds are passed on as bounds.

Sequence of EGFR kinase (P00533 25-1210): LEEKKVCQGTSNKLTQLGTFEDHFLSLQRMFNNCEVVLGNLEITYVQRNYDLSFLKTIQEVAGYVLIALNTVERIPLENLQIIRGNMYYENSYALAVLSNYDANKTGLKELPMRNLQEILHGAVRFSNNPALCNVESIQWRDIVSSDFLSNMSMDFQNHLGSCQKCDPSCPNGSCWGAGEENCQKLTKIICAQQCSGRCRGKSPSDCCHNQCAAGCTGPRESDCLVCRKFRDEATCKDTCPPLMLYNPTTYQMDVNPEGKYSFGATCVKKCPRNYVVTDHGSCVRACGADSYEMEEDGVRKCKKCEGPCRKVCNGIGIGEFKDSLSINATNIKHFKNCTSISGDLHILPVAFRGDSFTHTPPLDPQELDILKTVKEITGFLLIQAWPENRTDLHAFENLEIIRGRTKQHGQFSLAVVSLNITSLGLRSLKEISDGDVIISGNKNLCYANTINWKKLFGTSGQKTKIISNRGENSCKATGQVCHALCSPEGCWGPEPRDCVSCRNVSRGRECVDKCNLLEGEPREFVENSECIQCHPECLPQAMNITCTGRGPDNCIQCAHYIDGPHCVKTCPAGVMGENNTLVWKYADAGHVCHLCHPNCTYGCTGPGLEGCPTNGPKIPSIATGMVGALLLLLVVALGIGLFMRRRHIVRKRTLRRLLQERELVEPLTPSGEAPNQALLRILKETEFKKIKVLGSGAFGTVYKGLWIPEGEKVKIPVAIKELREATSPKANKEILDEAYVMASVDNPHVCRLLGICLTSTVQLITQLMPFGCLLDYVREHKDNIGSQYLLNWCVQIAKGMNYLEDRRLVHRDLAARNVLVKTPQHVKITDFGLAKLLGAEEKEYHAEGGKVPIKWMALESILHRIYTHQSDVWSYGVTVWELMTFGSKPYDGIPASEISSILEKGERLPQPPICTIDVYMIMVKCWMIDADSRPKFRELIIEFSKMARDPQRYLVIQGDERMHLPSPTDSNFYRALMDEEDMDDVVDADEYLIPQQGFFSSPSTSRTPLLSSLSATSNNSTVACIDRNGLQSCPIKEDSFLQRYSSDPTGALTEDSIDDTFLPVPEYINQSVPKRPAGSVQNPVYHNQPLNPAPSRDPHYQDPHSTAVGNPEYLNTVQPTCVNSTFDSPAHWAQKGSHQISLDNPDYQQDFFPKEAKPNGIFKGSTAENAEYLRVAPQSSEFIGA

For `CC(=O)O[C@H]1CO[C@H]2[C@@H]1OC[C@@H]2Oc1ccnc(NC2CCN(S(C)(=O)=O)CC2)n1` [Example FF, [(3S,3aR,6S,6aR)-3-[2-[(1-methylsulfonyl-4-piperidyl)amino]pyrimidin-4-yl]oxy-2,3,3a,5,6,6a-hexahydrofuro[3,2-b]furan-6-yl] acetate], the “EGFR IC50” value is given as “Inactive”.
`COc1cc2ncnc(Nc3ccc(O[C@H]4CO[C@H]5[C@@H]4OC[C@@H]5O)c(Cl)c3)c2cc1OC` [Example T, (3S,3aR,6S,6aR)-6-[2-chloro-4-[(6,7-dimethoxyquinazolin-4-yl)amino]phenoxy]-2,3,3a,5,6,6a-hexahydrofuro[3,2-b]furan-3-ol] had an IC50 greater than 100 nM.
As for `O=C(O[C@H]1CO[C@H]2[C@@H]1OC[C@@H]2Oc1ccc(Nc2ncnc3ccsc23)cc1Cl)c1ccccc1` [Example EE, [(3S,3aR,6S,6aR)-3-[2-chloro-4-(thieno[3,2-d]pyrimidin-4-ylamino)phenoxy]-2,3,3a,5,6,6a-hexahydrofuro[3,2-b]furan-6-yl] benzoate], the IC50 was greater than 500 nM.
As for `COc1cc2ncnc(Nc3ccc(O[C@H]4CO[C@H]5[C@@H]4OC[C@@H]5OCc4ccccc4)cc3)c2cc1OC` [Example Z, N-[4-[[(3S,3aR,6S,6aR)-3-benzyloxy-2,3,3a,5,6,6a-hexahydrofuro[3,2-b]furan-6-yl]oxy]phenyl]-6,7-dimethoxy-quinazolin-4-amine], the concentration for half-maximal inhibition (IC50) was greater than 100 nM.
With `CC(=O)O[C@H]1CO[C@H]2[C@@H]1OC[C@@H]2Oc1ccc(Nc2ncnc3ccsc23)cc1Cl` [Example CC, [(3S,3aR,6S,6aR)-3-[2-chloro-4-(thieno[3,2-d]pyrimidin-4-ylamino)phenoxy]-2,3,3a,5,6,6a-hexahydrofuro[3,2-b]furan-6-yl] acetate], the IC50 is greater than 500 nM.
`COc1cc2ncnc(Nc3ccc(O[C@H]4CO[C@H]5[C@@H]4OC[C@@H]5OC(C)=O)cc3)c2cc1OC` [Example X, [(3S,3aR,6S,6aR)-3-[4-[(6,7-dimethoxyquinazolin-4-yl)amino]phenoxy]-2,3,3a,5,6,6a-hexahydrofuro[3,2-b]furan-6-yl] acetate] came in with an IC50 greater than 500 nM.
As to `CSc1nccc(Nc2ccc(O[C@H]3CO[C@H]4[C@@H]3OC[C@@H]4O)c(Cl)c2)n1` [Example V, (3S,3aR,6S,6aR)-6-[2-chloro-4-[(2-methylsulfanylpyrimidin-4-yl)amino]phenoxy]-2,3,3a,5,6,6a-hexahydrofuro[3,2-b]furan-3-ol], the “EGFR IC50” value is recorded as “Inactive”.
Turning to `O[C@H]1CO[C@H]2[C@@H]1OC[C@@H]2Oc1ccc(Nc2ccnc(Nc3ccc(O[C@H]4CO[C@H]5[C@@H]4OC[C@@H]5O)c(Cl)c3)n2)cc1Cl` [Example W, (3S,3aR,6S,6aR)-6-[4-[[2-[4-[[(3S,3aR,6S,6aR)-3-hydroxy-2,3,3a,5,6,6a-hexahydrofuro[3,2-b]furan-6-yl]oxy]-3-chloro-anilino]pyrimidin-4-yl]amino]-2-chloro-phenoxy]-2,3,3a,5,6,6a-hexahydrofuro[3,2-b]furan-3-ol], the “EGFR IC50” value was “Inactive”.
In the case of `COc1cc2ncnc(Nc3ccc(O[C@H]4CO[C@H]5[C@@H]4OC[C@@H]5OC(=O)c4ccccc4)c(Cl)c3)c2cc1OC` [Example DD, [(3S,3aR,6S,6aR)-3-[2-chloro-4-[(6,7-dimethoxyquinazolin-4-yl)amino]phenoxy]-2,3,3a,5,6,6a-hexahydrofuro[3,2-b]furan-6-yl] benzoate], the IC50 is greater than 100 nM.
Still for that read-out and setting: for `CC(=O)O[C@H]1CO[C@H]2[C@@H]1OC[C@@H]2Oc1ccc(Nc2ncnc3ccsc23)cc1` [Example Y, [(3S,3aR,6S,6aR)-3-[4-(thieno[3,2-d]pyrimidin-4-ylamino)phenoxy]-2,3,3a,5,6,6a-hexahydrofuro[3,2-b]furan-6-yl] acetate] the value was greater than 1000 nM.
For `CC(=O)O[C@H]1CO[C@H]2[C@@H]1OC[C@@H]2Oc1ccnc(NC2CCN(C(=O)C(C)(C)C)CC2)n1` [Example HH, [(3S,3aR,6S,6aR)-3-[2-[[1-(2,2-dimethylpropanoyl)-4-piperidyl]amino]pyrimidin-4-yl]oxy-2,3,3a,5,6,6a-hexahydrofuro[3,2-b]furan-6-yl] acetate], the “EGFR IC50” value was “Inactive”.
Molecule `COc1cc2ncnc(Nc3ccc(O[C@H]4CO[C@H]5[C@@H]4OC[C@@H]5OCc4ccccc4)c(Cl)c3)c2cc1OC` [Example AA, N-[4-[[(3S,3aR,6S,6aR)-3-benzyloxy-2,3,3a,5,6,6a-hexahydrofuro[3,2-b]furan-6-yl]oxy]-3-chloro-phenyl]-6,7-dimethoxy-quinazolin-4-amine] came in with a half-maximal inhibitory concentration (IC50) greater than 100 nM.
In the case of `CS(=O)(=O)N1CCC(Nc2nccc(O[C@H]3CO[C@H]4[C@@H]3OC[C@@H]4OC(=O)c3ccccc3)n2)CC1` [Example JJ, [(3S,3aR,6S,6aR)-3-[2-[(1-methylsulfonyl-4-piperidyl)amino]pyrimidin-4-yl]oxy-2,3,3a,5,6,6a-hexahydrofuro[3,2-b]furan-6-yl] benzoate], the “EGFR IC50” value is “Inactive”.
For `CSc1ncc(Br)c(C(=O)O[C@H]2CO[C@H]3[C@@H]2OC[C@@H]3O)n1` [Example KK, [(3S,3aR,6S,6aR)-3-hydroxy-2,3,3a,5,6,6a-hexahydrofuro[3,2-b]furan-6-yl] 5-bromo-2-methylsulfanyl-pyrimidine-4-carboxylate], the “EGFR IC50” value is given as “Inactive”.
With `COc1cc2ncnc(Nc3ccc(O[C@H]4CO[C@H]5[C@@H]4OC[C@@H]5OC(C)=O)c(Cl)c3)c2cc1OC` [Example BB, [(3S,3aR,6S,6aR)-3-[2-chloro-4-[(6,7-dimethoxyquinazolin-4-yl)amino]phenoxy]-2,3,3a,5,6,6a-hexahydrofuro[3,2-b]furan-6-yl] acetate], the IC50 is greater than 500 nM.
Still for that read-out and setting: for `O[C@H]1CO[C@H]2[C@@H]1OC[C@@H]2Oc1ccc(Nc2ncnc3ccsc23)cc1Cl` [Example U, (3S,3aR,6S,6aR)-6-[2-chloro-4-(thieno[3,2-d]pyrimidin-4-ylamino)phenoxy]-2,3,3a,5,6,6a-hexahydrofuro[3,2-b]furan-3-ol] the value was greater than 100 nM.

Broadly, the IC50 is the concentration that gives 50% inhibition. A higher IC50 goes with a need for much substance.
